Source: ChEMBL document CHEMBL1135856, “Identification of unique VLA-4 antagonists from a combinatorial library” (Bioorg Med Chem Lett, 2002)

Target: Integrin alpha-4/beta-1 (Homo sapiens, UniProt P05556+P13612)
Assay: Inhibition of [125I]VCAM-Ig binding to Alpha-4 beta-1 (VLA-4) of Jurkat cells
Format: cell-based

Sequence of Integrin alpha-4/beta-1 (P05556 whole entry): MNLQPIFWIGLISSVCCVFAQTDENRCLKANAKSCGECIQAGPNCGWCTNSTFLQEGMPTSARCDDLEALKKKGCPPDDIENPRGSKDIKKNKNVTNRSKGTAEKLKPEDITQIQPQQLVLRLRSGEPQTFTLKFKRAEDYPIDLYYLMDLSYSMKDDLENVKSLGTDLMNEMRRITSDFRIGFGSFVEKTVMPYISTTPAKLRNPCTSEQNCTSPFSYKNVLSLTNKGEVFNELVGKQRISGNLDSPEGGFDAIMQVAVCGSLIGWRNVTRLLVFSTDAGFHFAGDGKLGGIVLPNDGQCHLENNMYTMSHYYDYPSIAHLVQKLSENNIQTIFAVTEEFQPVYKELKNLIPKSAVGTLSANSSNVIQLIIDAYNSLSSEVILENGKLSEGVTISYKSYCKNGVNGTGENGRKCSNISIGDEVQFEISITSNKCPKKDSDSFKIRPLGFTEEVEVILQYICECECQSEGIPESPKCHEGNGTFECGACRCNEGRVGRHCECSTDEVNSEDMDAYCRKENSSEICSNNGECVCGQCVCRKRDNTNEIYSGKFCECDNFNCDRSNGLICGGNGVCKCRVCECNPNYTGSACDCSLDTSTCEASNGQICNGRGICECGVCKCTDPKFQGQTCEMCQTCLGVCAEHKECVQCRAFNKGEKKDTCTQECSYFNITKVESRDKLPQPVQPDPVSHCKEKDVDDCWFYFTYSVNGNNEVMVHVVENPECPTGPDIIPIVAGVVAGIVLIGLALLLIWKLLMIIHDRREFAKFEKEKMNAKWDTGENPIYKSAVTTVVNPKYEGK
Sequence of Integrin alpha-4/beta-1 (P13612 whole entry): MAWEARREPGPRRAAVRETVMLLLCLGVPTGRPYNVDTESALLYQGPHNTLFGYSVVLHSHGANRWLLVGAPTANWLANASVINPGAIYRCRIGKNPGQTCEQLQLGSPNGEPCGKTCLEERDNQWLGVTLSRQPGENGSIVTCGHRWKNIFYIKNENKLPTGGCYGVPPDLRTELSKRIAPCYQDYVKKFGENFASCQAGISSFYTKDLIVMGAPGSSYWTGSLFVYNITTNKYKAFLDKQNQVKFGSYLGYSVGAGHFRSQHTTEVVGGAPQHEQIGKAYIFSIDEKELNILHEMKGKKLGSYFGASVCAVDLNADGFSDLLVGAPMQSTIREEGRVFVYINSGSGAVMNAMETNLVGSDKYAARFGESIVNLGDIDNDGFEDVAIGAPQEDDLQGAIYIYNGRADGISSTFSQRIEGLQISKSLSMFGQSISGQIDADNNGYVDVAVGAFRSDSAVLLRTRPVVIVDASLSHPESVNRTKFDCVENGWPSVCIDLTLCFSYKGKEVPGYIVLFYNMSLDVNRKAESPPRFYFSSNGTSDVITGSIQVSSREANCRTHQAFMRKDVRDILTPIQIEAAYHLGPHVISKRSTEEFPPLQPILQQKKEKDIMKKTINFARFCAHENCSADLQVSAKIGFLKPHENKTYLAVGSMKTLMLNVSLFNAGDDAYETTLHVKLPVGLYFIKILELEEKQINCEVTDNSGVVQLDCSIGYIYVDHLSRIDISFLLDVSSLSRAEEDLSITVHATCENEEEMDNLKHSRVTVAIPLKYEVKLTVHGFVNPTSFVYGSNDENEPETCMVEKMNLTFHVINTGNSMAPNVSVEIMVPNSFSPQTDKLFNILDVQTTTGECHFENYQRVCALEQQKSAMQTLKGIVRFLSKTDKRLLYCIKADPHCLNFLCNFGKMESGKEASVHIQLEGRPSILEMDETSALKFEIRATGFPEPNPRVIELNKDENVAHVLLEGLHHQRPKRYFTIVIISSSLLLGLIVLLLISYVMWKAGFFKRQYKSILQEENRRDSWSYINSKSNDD

IC50 [nM] | Structure (SMILES)
0.53 | CCCC[C@H](NC(=O)[C@@H]1Cc2ccccc2CN1S(=O)(=O)c1ccc(OC)c(OC)c1)C(=O)O
3.6 | O=C(N[C@@H](Cc1ccc(-c2ccccc2)cc1)C(=O)O)c1ccc(CNS(=O)(=O)c2cc(Cl)cc(Cl)c2)cc1
3.2 | Cc1ccccc1NC(=O)Nc1ccc(CC(=O)N(CC(=O)NC(CC(=O)O)c2ccccc2)C2CCCCC2)cc1 (centres undefined)
8.1 | Cc1ccccc1NC(=O)Nc1ccc(CC(=O)C2CCC(C(=O)N[C@@H](Cc3ccccc3)C(=O)O)(c3ccccc3)CC2)cc1 (some centres undefined)
